Measured values: patent publication US4879300A, “Novel piperidine derivatives” (Dr. Lo. Zambeletti S.p.A., priority 1986, dated 1989)
Where two headings read alike, the source gives them in different places.

Experiments:
mice = test: Mouse tail-flick test (analgesic activity); format: in vivo, mouse (male Charles River)
[1] = biological target: T1, K receptor (Kappa opioid receptor) (Cavia porcellus, UniProt P41144); test: Receptor binding to K sites (tritiated Ethylketocyclazocine, guinea pig brain homogenate); conditions: tritiated Ethylketocyclazocine with 100 nM DADLE and 100 nM DAGO, 25° C., 40 min, read-out: Receptor binding k (kj)
T1 construct: fresh guinea pig brain homogenate; from tissue; host or cells: guinea pig whole brain without cerebellum, homogenate
T1 sequence (P41144 whole entry): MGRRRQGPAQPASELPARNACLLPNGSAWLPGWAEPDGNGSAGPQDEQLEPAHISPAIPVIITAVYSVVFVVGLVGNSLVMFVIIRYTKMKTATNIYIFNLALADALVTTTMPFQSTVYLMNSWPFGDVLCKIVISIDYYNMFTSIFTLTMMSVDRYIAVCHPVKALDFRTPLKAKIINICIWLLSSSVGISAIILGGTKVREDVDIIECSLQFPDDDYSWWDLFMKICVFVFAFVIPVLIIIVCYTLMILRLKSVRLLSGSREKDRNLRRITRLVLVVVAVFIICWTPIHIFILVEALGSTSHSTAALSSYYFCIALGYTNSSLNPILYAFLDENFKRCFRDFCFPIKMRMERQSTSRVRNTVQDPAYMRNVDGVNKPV
Experimental: (§1) Radio receptor binding to μ and K sites is performed on fresh guinea pig brain homogenate prepared according to Kosterlitz. (1981).
(§2) Whole brain without cerebellum is homogenized in 50 mM, Tris-buffer (pH 7.4 at 0° C.) and centrifuged at 49,000 ×g×10 min.
(§3) The pellet is then resuspended in the same buffer, incubated at 37° C. for 45 min. and centrifuged again.
(§4) 1.9 ml of the final homogenate (1:100 in Tris-pH 7.4, 0° C.) is used for the binding assay.
Binding to K sites (Magnan J., 1982)
The binding of tritiated Ethylketocyclazocine to brain homogenate is measured the in presence of 100 nanomolar D-Ala-D-LeuEnkephalin (DADLE) and 100 nanomolar DAGO, added to saturate the δ and μ opioid receptors respectively.
Final homogenate with solutions of the cold ligand and of the labelled ligand is incubated for 40 min. at 25° C., filtered through Whatman GF/C glass filter discs and washed.
The radioactivity bound to the filters is counted by liquid scintillation spectrophotometry.
MR 2266.500 nM is utilized to determine the saturable binding.
For the calculation of the kinetic parameters of the binding of labelled and unlabelled ligands, the equilibrium dissociation constant (KD), the inhibition constant (Ki) and the maximum number of binding sites (B max) are determined from saturation curves and competition experiments (Hill 1910; Scatchard 1949; Cheng and Prusoff 1973; Gillan et al. 1980). […]

μ receptor = μ receptor (Cavia porcellus, UniProt A0ACM8Q262); test: Receptor binding to μ sites (3H-DAGO, guinea pig brain homogenate); conditions: 25° C., 40 min, read-out: Receptor binding μ (kj)
Chain of μ receptor (A0ACM8Q262 1-400): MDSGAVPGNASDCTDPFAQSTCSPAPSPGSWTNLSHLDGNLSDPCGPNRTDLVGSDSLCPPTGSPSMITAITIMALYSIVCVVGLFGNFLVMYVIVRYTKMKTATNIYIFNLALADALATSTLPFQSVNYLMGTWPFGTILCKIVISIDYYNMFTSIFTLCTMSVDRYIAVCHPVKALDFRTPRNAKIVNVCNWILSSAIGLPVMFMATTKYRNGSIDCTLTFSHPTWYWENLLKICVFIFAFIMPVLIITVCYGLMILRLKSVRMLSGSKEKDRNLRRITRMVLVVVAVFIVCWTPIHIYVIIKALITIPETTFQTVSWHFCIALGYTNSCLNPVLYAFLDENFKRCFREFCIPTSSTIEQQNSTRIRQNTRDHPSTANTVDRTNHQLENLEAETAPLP
Experimental: as §1, §2, §3, §4
Binding to μ sites (Magnan J., 1982)
^3 H [D-Ala^2, MePhe^4, Gly-ol^5 ] Enkephalin (^3 H--DAGO), an enkephalin analogue that binds selectively to μ receptor, is added to the biological substrate and incubated at 25° C. for 40 min., filtered through Whatman GF-C and washed with ice-cold Tris-buffer.
The filters are then dryed, solubilized in Filtercount and the radioactivity monitored. Non specific binding is determined in the presence of 10^-6 M Naloxone.
For the calculation of the kinetic parameters of the binding of labelled and unlabelled ligands, the equilibrium dissociation constant (KD), the inhibition constant (Ki) and the maximum number of binding sites (B max) are determined from saturation curves and competition experiments (Hill 1910; Scatchard 1949; Cheng and Prusoff 1973; Gillan et al. 1980).
A concentration of radioligand near KD is used in the binding assays evaluating our compounds.

[2] = sc, 0.5 h, s.c., reaction time recorded 30 min after dosing, % mice doubling initial time, read-out: Mouse tail-flick ED50 (s.c.)

Work on `CC(C1CCCCN1C(=O)Cc1ccc(Cl)c(Cl)c1)N1CCCC1` (single isomer, unassigned; diastereoisomer b) [Example 2, 1-(3,4-dichlorophenylacetyl)-2-[1-(1-pyrrolidinyl)ethylpiperidine]--Diastereoisomer B] yielded an ED50 (mice; [2]) of 4.12 mg/kg.

For `CC(C1CCCCN1C(=O)Cc1ccc(Cl)c(Cl)c1)N(C)C.Cl` (single isomer, unassigned; diastereoisomer b) [Example 4, 1-(3,4-dichlorophenylacetyl)-2-(1-dimethylaminoethyl) piperidine hydrochloride--Diastereoisomer B], the ED50 (mice; po, read-out: Mouse tail-flick ED50 (p.o.)) was 0.75 mg/kg, the ED50 (mice; [2]) was 0.41 mg/kg and the Ki [1] was 2.3 nM. For the same compound, the Ki (μ receptor) was 913 nM.
